Among the test systems are DMS-114; KM-20L2; DMS-273; LXFL 529; RXF 631; M19-MEL; HOP-18; XF498; DLD-1.
Test in all cases: NCI-60 cell line screen, 48 h

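Values below derive from 48-hour exposures of cells grown in 96-well plates, with endpoints linearly interpolated between the two concentrations bracketing the appropriate inhibition level. GI50 marks 50% less growth.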 Active and inactive are the calls of the source. Cut-off read from the data, not from the text of the source: active = GI50 up to about 1.1 µM and inactive = higher. Peptide text beside a SMILES is read from it.

Turning to `Cc1ccc(NC(=O)C(=O)C(C(=O)c2ccc3ccccc3c2)C2OC(=O)c3ccccc32)c(C)c1` (stereo unspecified), the GI50 with DMS-114 was 7.6 µM (inactive); in the assay on KM-20L2 it was 24.4 µM (inactive); in the assay on DMS-273, > 10 µM (inactive); in the assay on LXFL 529, 8.09 µM (inactive); in the assay on RXF 631, 4.68 µM (inactive); in the assay with M19-MEL it was 6.38 µM (inactive). In addition, the values for the GI50 in the assay on HOP-18, in the assay on XF498 and in the assay on DLD-1 were 12.1 µM (inactive), 0.485 µM (active) and 12.6 µM (inactive), respectively.

`O=C1COc2cc(NC(=S)Nc3ccccc3)ccc2N1`: the GI50 with DMS-114, in the assay on KM-20L2, with DMS-273, in the assay on LXFL 529, in the assay on RXF 631 and in the assay on M19-MEL was > 100 µM (inactive) each time. Also, the GI50 with HOP-18, in the assay on XF498 and in the assay on DLD-1 was > 100 µM (inactive) each time.

Consider `COc1ccc(C(c2c(O)c3ccccc3n(C)c2=O)c2c(O)c3ccccc3n(C)c2=O)cc1`, for which the GI50 is 63.1 µM (inactive) in the assay with DMS-114; 21.3 µM (inactive) in the assay on KM-20L2; 31.2 µM (inactive) in the assay on DMS-273; 46.1 µM (inactive) with LXFL 529; 21.3 µM (inactive) with RXF 631; 98.4 µM (inactive) in the assay with M19-MEL. For the same compound, the GI50 in the assay on HOP-18 was 35.7 µM (inactive); in the assay with XF498 it was 99.8 µM (inactive); in the assay with DLD-1, 37.5 µM (inactive).

Turning to `CC(C)CC(NC(=O)C(CC(C)C)NC(=O)C(Cc1c[nH]cn1)NC(=O)C(C)NC(=O)C(NC(=O)C(C)NC(=O)C(Cc1c[nH]c2ccccc12)NC(=O)C(CCC(=O)O)NC(=O)C(N)Cc1ccccc1)C(C)C)C(N)=O` (stereo unspecified) (H-FEWAVAHLL-NH2; configuration not given here), the GI50 with DMS-114, in the assay with KM-20L2, with DMS-273, in the assay with LXFL 529, in the assay on RXF 631 and in the assay with M19-MEL was > 100 µM (inactive) each time. Also, the GI50 with HOP-18, with XF498 and in the assay on DLD-1 was > 100 µM (inactive) each time.

The values above are taken from ChEMBL document CHEMBL1201862, “PubChem BioAssay data set” (2004).
